“Also recorded” adds a separate entry of the source.
Columns and labels:
COVID-19 infection = assay: Open-label prospective phase 2 study of Compound A in high risk patients hospitalized with COVID-19, with matched registry controls; conditions: for Median LOS (95% CI): length of hospital stay, 1500 mg twice daily up to 14 days; for Estimated difference in median LOS / Estimated difference in median LOS (95% CI): Hodges-Lehmann estimate
[1] = tested on: COVID-19 with signs of ARDS and/or ALI; assay: Treatment of Critical COVID-19 (single-patient example written in present tense); type: in vivo; conditions: one patient, 1500 mg oral twice a day
[2] = tested on: COVID-19 with severe ARDS; assay: Treatment of critical COVID-19 patients with severe ARDS under Emergency Investigational New Drug Applications; type: in vivo, human; conditions: 1500 mg twice a day
Protocol: Five critical COVID-19 patients admitted to the intensive care unit with severe ARDS were treated with Compound A (caficrestat) 1500 mg twice a day. All patients were on 100% high flow oxygen, had failed all other available treatment options, including anti-IL^6/anti-IL-17 therapy, and were at high risk of rapid progression to mechanical ventilation. The patients were treated under Emergency Investigational New Drug Applications as the last option to prevent mortality.

[3] = 10 participants, 1500 mg twice daily
[4] = eight participants who survived and were discharged

O=C(O)Cc1nn(Cc2nc3cc(C(F)(F)F)ccc3s2)c(=O)c2nccnc12 [Compound A, caficrestat]
adverse events leading to early discontinuation of treatment (COVID-19 infection; [3]): mild-moderate grade adverse events possibly linked to study drug in three participants
safety laboratory monitoring during hospitalization (COVID-19 infection; [3]): did not demonstrate any treatment-related abnormal findings
percent mortality (COVID-19 infection; 10 participants, death during index hospitalization due to COVID-19 complications): 20%
Median LOS (95% CI) (COVID-19 infection; All Subjects, N=10): 5 (4, 29)
Estimated difference in median LOS (COVID-19 infection; All Subjects, Compound A vs Match 1 control group (N=16)): 1.5
Estimated difference in median LOS (COVID-19 infection; All Subjects, Compound A vs Match 2 control group (N=60)): 14
Median LOS (95% CI) (COVID-19 infection; Surviving Subjects, N=8): 5 (4, 35)
Estimated difference in median LOS (95% CI) (COVID-19 infection; Surviving Subjects, Compound A vs Match 1 control group (N=11)): 1 (−2, 19)
Estimated difference in median LOS (95% CI) (COVID-19 infection; Surviving Subjects, Compound A vs Match 2 control group (N=43)): 9 (0, 42)
median hospital length of stay (COVID-19 infection; [4]): 5 days
range of hospital length of stay (COVID-19 infection; [4]): 3 to 35 days
safety and tolerability (COVID-19 infection; hospitalized COVID-19 patients with diabetes mellitus and hypertension, 1500 mg twice daily): generally safe and well tolerated
participants who survived and were discharged from the hospital (COVID-19 infection; of 10 treated participants): Eight of the ten treated patients survived
progression to mechanical ventilation (COVID-19 infection; ten treated patients): None of the treated patients progressed to mechanical ventilation
mortality compared with matched control groups (COVID-19 infection; vs control group 1 (31.3%) and control group 2 (28.3%), vs non-high risk population): numerically lower; also recorded: decreased to the level observed for the non-high risk population
length of hospital stay compared with matched control groups (COVID-19 infection; vs the two matched control groups): numerically less
signs of ARDS and/or ALI [1]: diminished
viral burden [1]: reduced
patients recovered and discharged from the hospital ([2]; five ICU patients on 100% high flow oxygen): Four of the five
patients who died ([2]; five ICU patients, patient had a do not resuscitate order): One patient
